Results from patent US20210139857A1, “Intestinal organoid co-culture systems and methods for treating or preventing a disease or disorder associated with immune response-mediated tissue injury” (NEW YORK UNIVERSITY, priority 2019, published 2021).

What was measured:
Atg16L1^ΔIEC mice = test: preclinical GVHD model: allo-HCT after chemotherapy conditioning, GSK547 or control chow; type: in vivo, mouse; conditions: GSK547 chow started 10 days before allo-HCT, P<0.05
Source text: FIG. 1F depicts the survival of chemotherapy-pretreated Atg16L1^f/f (f/f) and Atg16L1^ΔIEC (ΔIEC) mice which received GSK547 or control chow and were transplanted with 5×10^6 T cell-depleted BM cells with 4×10^6 splenic T cells from donor LP/J mice. n=8 (f/f, control), 8 (ΔIEC, control), 8 (f/f, GSK547), and 8 (ΔIEC, GSK547). GSK547 was started 10 days before allo-HCT, and continued until the end of the study. FIG. 1G depicts the clinical disease scores evaluated every 7 days after allo-HCT. Data points in FIG. 1B, FIG. 1D, and FIG. 1F represent individual mice, and data points in FIG. 1C, FIG. 1E, and FIG. 1G are mean of clinical scores of viable mice. Bars represent means±SEM, and survival data in FIG. 1B, FIG. 1D, and FIG. 1F are combined results of 2 experiments performed independently. FIG. 1B, FIG. 1D, and FIG. 1F were analyzed with the Mantel-Cox log rank test.
In brief, female B6 background mice were intraperitoneally injected with busulfan (20 mg/kg/day) for 5 days, followed by cyclophosphamide (100 mg/kg/day) for 3 days. Days −2 and −1 were rest days. […] Recipient mice were monitored daily for survival and weekly quantified for clinical GVHD for 5 clinical parameters (weight loss, hunched posture, activity, fur ruffling, and skin lesions) on a scale from 0 to 2. […]

[1] = test system: ATG16L1^T300A homozygous human organoids; test: human organoid viability assay, TNFα-induced death; type: cell-based; conditions: 50 ng/ml TNFα, 48 hours; 100 nM Ruxolitinib, 1 μM GSK547, 20 μM Necrostatin-1s, 2 μM NSA; P<0.0001
Experimental: N=14 (Nonrisk) and 6 (T300A/T300A). Statistical significance was validated with Fisher's exact test. FIG. 13B depicts a combined organoid viability in (A). N=14 (Non-risk) and 6 (T300A/T300A). FIG. 13C and FIG. 13D depict representative images (FIG. 13C) and viability (FIG. 13D) of human small intestinal organoids stimulated with or without 50 ng/ml TNFα, 100 nM Ruxolitinib, 1 μM GSK547, 20 μM Necrostatin-1s (Nec-1s), and 2 μM necrosulfonamide (NSA) for 48 hours. Scale bars represent 400 μm. Data points in FIG. 13B represent an average viability of individual organoids in FIG. 12, and data points in FIG. […] are mean of technical replicates. At least 2 independent experiments were performed. ***p<0.001, ****p<0.0001.
Mouse small intestinal and colonic crypts were isolated and cultured. Crypts of proximal small intestine were counted and embedded in Matrigel at 10,000 crypts/ml and cultured in DMEM/F-12 in the presence of 100 IU penicillin and 100 μg/ml streptomycin (Corning), 125 μg/ml gentamicin (Gibco), 2 mM l-glutamine (Corning), 20 ng/ml mEGF (PeproTech), 100 ng/ml mNoggin (R&D Systems), and 500 ng/ml mR-Spondin 1 (R&D Systems), hereafter referred as ENR medium. Crypts of colon were counted and embedded in Matrigel and cultured in the ENR medium plus 50 ng/ml Wnt-3a, 1×B-27, and N-2 supplement (Thermo Fisher Scientific). Surface area of organoids was quantified with Image J. For organoid viability assays, crypts were embedded in 10 μl of Matrigel at 5,000 crypts/ml and cultured in 96-well culture plate in triplicate with or without 20 ng/ml mTNFα (PeproTech) and 100 nM Ruxolitinib (Selleckchem). Percent viable organoids was determined by daily quantification of the number of intact organoids. Opaque organoids with condensed structures or those that have lost adherence were excluded. Dead organoids were marked by staining with 100 μg/ml propidium iodide (SIGMA-ALDRICH). Human intestinal organoids were cultured (Neil et al., 2019, Nat Microbiol 4, 1737-1749). […]

N#Cc1cc(N2CCC(C(=O)N3N=CC[C@H]3c3cc(F)cc(F)c3)CC2)ncn1 [GSK547]
survival after allo-HCT (Atg16L1^ΔIEC mice; BM + T cells from LP/J donors): significantly better survival
clinical GVHD score after allo-HCT (Atg16L1^ΔIEC mice; scored every 7 days): significantly better
viability of human organoids, TNFα-induced death [1]: significantly protected

COc1nccnc1NS(=O)(=O)c1ccc(NC(=O)/C=C/c2ccc([N+](=O)[O-])s2)cc1 [Necrosulfonamide]
viability of human organoids, TNFα-induced death [1]: significantly protected

CN1C(=O)NC(Cc2c[nH]c3c(Cl)cccc23)C1=O (centres unmarked) [Necrostatin-1s]
viability of human organoids, TNFα-induced death [1]: significantly protected
